# Data: patent US5395947A, “Platinum(II) complex and processes for preparing the same” (Sunkyong Industries, Ltd., priority 1991, dated 1995)
# Legend:
# [1] = test system: murine leukemia L1210 cells; experiment: Growth inhibition test on cultured murine leukemia L1210 cells; format: cell-based; settings: 48 hours, 37° C., Trypan blue viability
# How it was run: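 L1210 cells (1×10^5) exposed to graded compound concentrations in RPMI 1640 with 10% fetal calf serum, 37° C, 5% CO2, 48 h. Viability by 0.17% Trypan blue staining, relative to untreated control cells.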
# murine leukemia L1210 = experiment: Antitumor activity test on murine leukemia L1210 in vivo; parameters: species or system male BDF1 mice; settings: days 1, 5, 9
# How it was run: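 Intraperitoneal L1210 model: 1×10^6 cells inoculated i.p. into 6-week-old male BDF1 mice (21±3 g) on day 0, seven per group. Compounds in 0.5% CMC given i.p. on days 1, 5 and 9; vehicle-only controls. T/C % from mean survival time of treated over control.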
# [2] = Test for water solubility; format: physicochemical; settings: water
# Description: 3. Test for water solubility
# A standard plot of UV absorbance(220 nm) vs. concentration was made; and employed to determine water-solubility.
# The mixture was then passed through a 0.45 micron disposable membrane filter before dilution and UV measurement.
# ICR mice = experiment: Acute toxicity test; format: in vivo; parameters: Lethality: unit not given here; settings: for Lethality: 10080 min
# How it was run: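 Male and female 7-week-old ICR mice, 6 per group, dosed intraperitoneally. Signs and survival followed for 7 days, with autopsy of animals that died.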
smiles,measurement,setting,value
"CC1(C)OC2C[NH2+][Pt-2]3([NH2+]CC2O1)[O]C(=O)C1(CCC1)C(=O)[O]3 [Example 26, cis-cyclobutane-1,1-dicarboxylato[(4R,5R)-4,5-bis(aminomethyl)-2,2-dimethyl-1,3-dioxolane]platinum(II)]",IC50 (concentration required for 50% inhibition of growth),[1],0.65 µg/mL
same,T/C (%),murine leukemia L1210; 6.2 mg/kg i.p.,124%
same,T/C (%),murine leukemia L1210; 12.5 mg/kg i.p.,170%
same,T/C (%),murine leukemia L1210; 25 mg/kg i.p.,217%
same,T/C (%),murine leukemia L1210; 50 mg/kg i.p.,283%
same,T/C (%),murine leukemia L1210; 100 mg/kg i.p.,317%
same,Solubility in water,[2],2000 µg/mL
same,Number of dead mice for 7 days,"ICR mice; female, 160 mg/kg i.p.",0/6
same,"Number of dead mice, 1st day","ICR mice; female, 160 mg/kg i.p.",0/6
same,Number of dead mice for 7 days,"ICR mice; female, 208 mg/kg i.p.",0/6
same,"Number of dead mice, 1st day","ICR mice; female, 208 mg/kg i.p.",0/6
same,Number of dead mice for 7 days,"ICR mice; female, 270 mg/kg i.p.",1/6
same,"Number of dead mice, 1st day","ICR mice; female, 270 mg/kg i.p.",0/6
same,"Number of dead mice, 5th day","ICR mice; female, 270 mg/kg i.p.",1/6
same,Lethality,"ICR mice; female, 270 mg/kg i.p.",16.7
same,Number of dead mice for 7 days,"ICR mice; female, 352 mg/kg i.p.",4/6
same,"Number of dead mice, 1st day","ICR mice; female, 352 mg/kg i.p.",0/6
same,"Number of dead mice, 3rd day","ICR mice; female, 352 mg/kg i.p.",2/6
same,"Number of dead mice, 4th day","ICR mice; female, 352 mg/kg i.p.",2/4
same,Lethality,"ICR mice; female, 352 mg/kg i.p.",66.7
same,Number of dead mice for 7 days,"ICR mice; female, 457 mg/kg i.p.",6/6
same,"Number of dead mice, 1st day","ICR mice; female, 457 mg/kg i.p.",0/6
same,"Number of dead mice, 2nd day","ICR mice; female, 457 mg/kg i.p.",4/6
same,"Number of dead mice, 3rd day","ICR mice; female, 457 mg/kg i.p.",2/2
same,Lethality,"ICR mice; female, 457 mg/kg i.p.",100.0
same,Number of dead mice for 7 days,"ICR mice; male, 160 mg/kg i.p.",0/6
same,"Number of dead mice, 1st day","ICR mice; male, 160 mg/kg i.p.",0/6
same,Number of dead mice for 7 days,"ICR mice; male, 208 mg/kg i.p.",1/6
same,"Number of dead mice, 1st day","ICR mice; male, 208 mg/kg i.p.",0/6
same,"Number of dead mice, 3rd day","ICR mice; male, 208 mg/kg i.p.",1/6
same,Lethality,"ICR mice; male, 208 mg/kg i.p.",16.7
same,Number of dead mice for 7 days,"ICR mice; male, 270 mg/kg i.p.",2/6
same,"Number of dead mice, 1st day","ICR mice; male, 270 mg/kg i.p.",0/6
same,"Number of dead mice, 4th day","ICR mice; male, 270 mg/kg i.p.",2/6
same,Lethality,"ICR mice; male, 270 mg/kg i.p.",33.3
same,Number of dead mice for 7 days,"ICR mice; male, 352 mg/kg i.p.",4/6
same,"Number of dead mice, 1st day","ICR mice; male, 352 mg/kg i.p.",0/6
same,"Number of dead mice, 2nd day","ICR mice; male, 352 mg/kg i.p.",1/6
same,"Number of dead mice, 3rd day","ICR mice; male, 352 mg/kg i.p.",3/5
same,Lethality,"ICR mice; male, 352 mg/kg i.p.",66.7
same,Number of dead mice for 7 days,"ICR mice; male, 457 mg/kg i.p.",6/6
same,"Number of dead mice, 1st day","ICR mice; male, 457 mg/kg i.p.",0/6
same,"Number of dead mice, 2nd day","ICR mice; male, 457 mg/kg i.p.",2/6
same,"Number of dead mice, 3rd day","ICR mice; male, 457 mg/kg i.p.",4/4
same,Lethality,"ICR mice; male, 457 mg/kg i.p.",100.0
"CCC1(C)OC2C[NH2+][Pt-2]3([NH2+]CC2O1)[O]CC(=O)[O]3 [Example 9, (glycolato-O,O')[(4R,5R)-4,5-bis(aminomethyl)-2-ethyl-2-methyl-1,3-dioxolane]platinum(II)]",IC50 (concentration required for 50% inhibition of growth),[1],0.08 µg/mL
same,T/C (%),murine leukemia L1210; 3.1 mg/kg i.p.,148%
same,T/C (%),murine leukemia L1210; 6.2 mg/kg i.p.,187%
same,T/C (%),murine leukemia L1210; 12.5 mg/kg i.p.,231%
same,T/C (%),murine leukemia L1210; 25 mg/kg i.p.,toxic
same,T/C (%),murine leukemia L1210; 50 mg/kg i.p.,toxic
same,Solubility in water,[2],11600 µg/mL
same,Number of dead mice for 7 days,"ICR mice; female, 41.3 mg/kg i.p.",2/6
same,"Number of dead mice, 1st day","ICR mice; female, 41.3 mg/kg i.p.",0/6
same,"Number of dead mice, 4th day","ICR mice; female, 41.3 mg/kg i.p.",2/6
same,Lethality,"ICR mice; female, 41.3 mg/kg i.p.",0.0
same,Number of dead mice for 7 days,"ICR mice; female, 54.9 mg/kg i.p.",4/6
same,"Number of dead mice, 1st day","ICR mice; female, 54.9 mg/kg i.p.",0/6
same,"Number of dead mice, 3rd day","ICR mice; female, 54.9 mg/kg i.p.",1/6
same,"Number of dead mice, 4th day","ICR mice; female, 54.9 mg/kg i.p.",3/5
same,Lethality,"ICR mice; female, 54.9 mg/kg i.p.",50.0
same,Number of dead mice for 7 days,"ICR mice; female, 71.4 mg/kg i.p.",5/6
same,"Number of dead mice, 1st day","ICR mice; female, 71.4 mg/kg i.p.",0/6
same,"Number of dead mice, 3rd day","ICR mice; female, 71.4 mg/kg i.p.",1/6
same,"Number of dead mice, 4th day","ICR mice; female, 71.4 mg/kg i.p.",3/5
same,"Number of dead mice, 5th day","ICR mice; female, 71.4 mg/kg i.p.",1/2
same,Lethality,"ICR mice; female, 71.4 mg/kg i.p.",83.7
same,Number of dead mice for 7 days,"ICR mice; female, 91.8 mg/kg i.p.",6/6
same,"Number of dead mice, 1st day","ICR mice; female, 91.8 mg/kg i.p.",0/6
same,"Number of dead mice, 3rd day","ICR mice; female, 91.8 mg/kg i.p.",2/6
same,"Number of dead mice, 4th day","ICR mice; female, 91.8 mg/kg i.p.",4/4
same,Lethality,"ICR mice; female, 91.8 mg/kg i.p.",100.0
same,Number of dead mice for 7 days,"ICR mice; male, 41.3 mg/kg i.p.",0/6
same,"Number of dead mice, 1st day","ICR mice; male, 41.3 mg/kg i.p.",0/6
same,"Number of dead mice, 4th day","ICR mice; male, 41.3 mg/kg i.p.",2/6
same,"Number of dead mice, 5th day","ICR mice; male, 41.3 mg/kg i.p.",1/4
same,Lethality,"ICR mice; male, 41.3 mg/kg i.p.",0.0
same,Number of dead mice for 7 days,"ICR mice; male, 54.9 mg/kg i.p.",4/6
same,"Number of dead mice, 1st day","ICR mice; male, 54.9 mg/kg i.p.",0/6
same,"Number of dead mice, 4th day","ICR mice; male, 54.9 mg/kg i.p.",2/6
same,"Number of dead mice, 5th day","ICR mice; male, 54.9 mg/kg i.p.",2/4
same,Lethality,"ICR mice; male, 54.9 mg/kg i.p.",66.7
same,Number of dead mice for 7 days,"ICR mice; male, 71.4 mg/kg i.p.",5/6
same,"Number of dead mice, 1st day","ICR mice; male, 71.4 mg/kg i.p.",0/6
same,"Number of dead mice, 4th day","ICR mice; male, 71.4 mg/kg i.p.",1/6
same,"Number of dead mice, 5th day","ICR mice; male, 71.4 mg/kg i.p.",2/5
same,"Number of dead mice, 6th day","ICR mice; male, 71.4 mg/kg i.p.",2/3
same,Lethality,"ICR mice; male, 71.4 mg/kg i.p.",83.3
same,Number of dead mice for 7 days,"ICR mice; male, 91.8 mg/kg i.p.",6/6
same,"Number of dead mice, 1st day","ICR mice; male, 91.8 mg/kg i.p.",0/6
same,"Number of dead mice, 2nd day","ICR mice; male, 91.8 mg/kg i.p.",1/6
same,"Number of dead mice, 3rd day","ICR mice; male, 91.8 mg/kg i.p.",4/5
same,"Number of dead mice, 4th day","ICR mice; male, 91.8 mg/kg i.p.",1/1
same,Lethality,"ICR mice; male, 91.8 mg/kg i.p.",100.0
